Experimental data from US10829506B2, “Amino- or ammonium-containing sulfonic acid, phosphonic acid and carboxylic acid derivatives and their medical use” (GRI Bio, Inc., priority 2011, dated 2020).
“And” between values parts separate entries of the source, which are not always exact repeats. Identical values can stand only once.

Tested on: BALB/c-mice
Assay: Allergic contact dermatitis model (TDI), mouse ear swelling test
Assay type: in vivo
Protocol: The anti-inflammatory and anti-allergic effects of compound 1a were assessed in a mouse model of allergic contact dermatitis, a response driven primarily by T helper type 2 (Th2) cells. […] In this model, an allergic dermatitis response is obtained by sensitizing mice to TDI and subsequently challenging them with antigen by topical administration onto the ears. A quantitative assessment of anti-inflammatory and anti-allergic effects of topically or orally administered test compounds is possible by measuring the resulting ear swelling.
Female BALB/c-mice were obtained from Charles River (Sulzfeld, Germany) at age 8 weeks. All animals were housed in groups of eight per cage at 22° C. with a 12 h light/dark-cycle. Water and a standard diet (Aitromin, Lage/Lippe, Germany) were available ad libitum. All animals were acclimatized for one week before experimental procedures were commenced.
Experimental procedures for BALB/c mice housing, TDI sensitization and challenge, and measurement of ear thickness were performed as previously described (Baurner et al., J Pharm Pharmacol. 55:1107-1114 (2003)) with the following modifications. For active sensitization, 100 μL of 5% (w/v) TDI was administered to the shaved and stripped abdominal epidermis on day one, and for the next three consecutive days, 50 μL of 5% (w/v) TDI was applied. The allergic reaction was boosted 21 days later by application of 50 μL of 0.5% (w/v) TDI. For the examination of test compound effects, the left ears were used for the TDI challenge (20 μL of 0.5% in acetone) and ear thickness measured 3 h before and 24 h after challenge.
Group size was n=7 mice unless otherwise stated. Test compounds were freshly prepared before administration.
Administration time: to determine optimal time for administration treatment groups were treated orally by gavage with 100 mg/kg of compound 1a (suspended in phosphate-buffered saline (PBS), 10 mL/kg) 4 or 16 h before topical TDI challenge. Vehicle treated mice received PBS (10 mL/kg) orally, 4 h before challenge.
Dose-response: two groups of mice were treated orally with compound 1a at 20 mg/kg or 100 mg/kg suspended in PBS, 4 h before topical TDI challenge. Vehicle treated mice received PBS orally 4 h before challenge.
Compound 1a was administered to two groups of mice topically in 20 μl of a 2% or 6% solution in acetone/water (1:1). The solution was applied, 2 h before topical TDI challenge by administration of 10 μl onto each of the inner and outer surfaces of the left ears. A vehicle group (n=7) was treated with acetone/water (1:1).
Mean and standard error of the mean (SEM) were calculated from individual ear edema values. […]

Structure (SMILES): CCCCCCCCCCCCCC[N+](C)(C)CCCS(=O)(=O)[O-] [Compound 1a, 3-(N,N-Dimethylmyristylammonio)-Propanesulfonate]
- Inhibition of mouse ear swelling (allergic contact dermatitis) (oral 100 mg/kg, 4 h before TDI challenge): 52% and 51.7* %
- Inhibition of mouse ear swelling (allergic contact dermatitis) (oral 100 mg/kg, 16 h before TDI challenge): 32.2
- Inhibition of mouse ear swelling (allergic contact dermatitis) (topical 2% solution, 2 h before TDI challenge): 72%
- Inhibition of mouse ear swelling (allergic contact dermatitis) (topical 6% solution, 2 h before TDI challenge): 86%
